For one test, the system named is GT41F skin fibroblasts. As to the kind of experiment: 96-well MTS viability assay, GT41F fibroblasts. The settings on record: spm single agent, 3 days. In kind it is cell-based, human. As for the experimental part: (§1) Cells were plated in 96-well plates at 2000 cells per well and treated with the indicated doses of spd-3a. Cell viability was measured by the MTS assay 3 days later.
(§2) DLD-1 cells or H358 cells were plated in 96-well plates at 2000 cells per well and treated with the indicated doses of (A) spm-3 or (B) spm-2. (C) Cell viability was measured by the MTS assay 3 days later. Similar experiment using GT41 fibroblasts with spm2 or spm 3. Each assay point represents an average of duplicates.
On the technique in general: Formazan colour is commonly taken as a measure of viable cells.

The test system of test [1] is histone H3 lysine 9 acetylation in H358 cells. In words: Western analysis of histone H3 acetylation/methylation in H358 cells. In kind it is cell-based. The settings on record: 50 μM, 12 hours. As for the experimental part:
(A) Structures of 1a, and the acetylated side chain of a lysine residue within the polypeptide chain of a protein targeted by the acetylating enzyme (R1 and R2 are the main chain elements on both sides of the lysyl residue). (B) [^3H]-thymidine incorporation into DNA of H358 cells pulsed for 6 hrs at three different time points after the addition of increasing concentrations of 1a, i.e., at 6-12 hrs (12 hr curve), at 18-24 hours (24 hr curve), or at 42-48 hrs (48 hr curve). Incorporation is represented as a percentage relative to control (untreated) cells. (C) Cell cycle analysis of propidium iodide-stained cells harvested at various times after addition of 50 μM 1a. % of cells in G1, S, and G2 represents the average of two independent profiles. (D) Western analysis of histone H3 lysine 9 acetylation, histone H3 lysine 56 acetylation, histone H3 lysine 9 methylation, and total histone H3, before “c” or at the indicated times after addition of 50 μM 1a. Each lane represents 60 μg cellular protein.
Each lane represents 175 μg cell lysate protein.
One 6 cm culture dish of H358 cells per treatment was used. Cells were treated with 50 μM spm-2, spm-3, or spd-3a for 12 hours. Histones were extracted from cells in 0.2M H2SO4 (as described in Furuta, T., et al (2003) J. Biol. Chem. 278: 20303-20312), followed by SDS-PAGE and Western blotting. Blots were probed with anti-acetyl histone H3-lysine 9 (Upstate Biotechnology, Inc.)
Cells were lysed by adding 1 mL of 0.2 M H2SO4. […]
One 10-cm plate of H358 lung cancer cells (about 2×10^6 cells), grown in DMEM+10% Fetal bovine serum as described in reference, were treated for 24 hours with 50 μM 1a inhibitor. […] Treated cells and untreated (control) cells were harvested by lysing in buffer containing 10 mM Hepes pH 7.5, 100 mM NaCl, 300 mM sucrose, 3 mM MgCl2, 1 mM EDTA, 1 mM DTT, 0.5% Triton X-100, 1 mM PMSF, protease inhibitor pellet (Roche) and analyzed on 10% SDS-PAGE gels, followed by Western immunoblot analysis of total histone H3, methylated histone H3 (methylated on lysine 9), and acetylated histone H3 (acetylated on lysine 9). […]

Another test has as its system DLD-1 colon cancer cells. As to the kind of experiment: 96-well MTS viability assay, DLD-1. In kind it is cell-based. The settings on record: single agent, 3 days. As for the experimental part:
as §1, §2

Experimental findings from patent US10617656B2, “Methods of increasing the cytotoxicity of chemotherapeutic agents with multisubstrate inhibitors of histone, protein-Lys, polyamine acetylation, and polyamine metabolism” (Vanderbilt University, priority 2010, dated 2020) are described below.

In the case of `CC(=O)NCCSCC(=O)NCCCNCCCCNCCCN` [spm-3], in the test on GT41F skin fibroblasts, the “sensitivity of normal fibroblasts” value is listed as “sensitivity similar to that of H358 lung cancer cells”. Also, the “histone H3K9 acetylation (Western)” value in test [1] is “suppress histone acetylation”. Further, in the test on DLD-1 colon cancer cells, the “suppression of cancer cell growth and viability” value was “effective as single agents”.
